These results are taken from ChEMBL document CHEMBL1833833, “Design and synthesis of long acting inhaled corticosteroids for the treatment of asthma” (Bioorg Med Chem Lett, 2011).

Data set [1] in a line: Antiinflammatory activity in intratracheally dosed rat assessed as effective dose for inhibition of LPS-induced lung neutrophilia. In kind it is functional, Neutrophil.
In data set [2] the test system is Rattus norvegicus. The data set is described as follows: Unbound clearance in rat at 0.5 mg/kg, iv. In kind it is ADME, organism-based. Also noted: dose 0.5 mg/kg, route intravenous. The conditions noted are these: in vivo.
Data set [3] is described as follows: Antiinflammatory activity in rat assessed as inhibition of LPS-induced lung neutrophilia at 10 ug, intratracheally administered 4 hr prior to LPS challenge measured after 24 hrs. It counts as functional, Neutrophil.
For data set [4], the system named is Rattus norvegicus. Kind of data set: Clearance in rat at 0.5 mg/kg, iv. It counts as ADME, organism-based. On the set-up: dose 0.5 mg/kg, route intravenous. As to conditions: in vivo.
The test system of data set [5] is PBMC. Kind of data set: Inhibition of TNFalpha release in human PBMC by ELISA assay. In kind it is functional, cell-based.
The target in data set [6] is T1, Estrogen receptor (Homo sapiens) (UniProt P03372).
T1 sequence (whole entry): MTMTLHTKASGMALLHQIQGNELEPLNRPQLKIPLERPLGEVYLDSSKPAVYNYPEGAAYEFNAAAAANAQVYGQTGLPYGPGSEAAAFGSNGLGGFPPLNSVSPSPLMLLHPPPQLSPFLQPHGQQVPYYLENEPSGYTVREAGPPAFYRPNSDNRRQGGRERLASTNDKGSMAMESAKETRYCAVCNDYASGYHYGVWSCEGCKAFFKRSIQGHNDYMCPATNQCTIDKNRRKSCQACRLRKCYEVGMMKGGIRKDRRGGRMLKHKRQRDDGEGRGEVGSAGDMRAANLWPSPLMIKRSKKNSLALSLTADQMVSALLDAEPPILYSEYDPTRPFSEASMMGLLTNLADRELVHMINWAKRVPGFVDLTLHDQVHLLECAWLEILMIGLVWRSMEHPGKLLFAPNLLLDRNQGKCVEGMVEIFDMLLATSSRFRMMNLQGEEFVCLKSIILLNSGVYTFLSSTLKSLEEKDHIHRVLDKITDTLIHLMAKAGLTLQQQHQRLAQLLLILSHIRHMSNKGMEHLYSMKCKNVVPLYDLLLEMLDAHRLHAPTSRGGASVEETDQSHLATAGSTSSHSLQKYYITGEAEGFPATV
The data set is described as follows: Antagonist activity at human ER. In kind it is functional.

In data set [7] the target is T2, Androgen receptor (Homo sapiens) (UniProt P10275).
T2 sequence (whole entry): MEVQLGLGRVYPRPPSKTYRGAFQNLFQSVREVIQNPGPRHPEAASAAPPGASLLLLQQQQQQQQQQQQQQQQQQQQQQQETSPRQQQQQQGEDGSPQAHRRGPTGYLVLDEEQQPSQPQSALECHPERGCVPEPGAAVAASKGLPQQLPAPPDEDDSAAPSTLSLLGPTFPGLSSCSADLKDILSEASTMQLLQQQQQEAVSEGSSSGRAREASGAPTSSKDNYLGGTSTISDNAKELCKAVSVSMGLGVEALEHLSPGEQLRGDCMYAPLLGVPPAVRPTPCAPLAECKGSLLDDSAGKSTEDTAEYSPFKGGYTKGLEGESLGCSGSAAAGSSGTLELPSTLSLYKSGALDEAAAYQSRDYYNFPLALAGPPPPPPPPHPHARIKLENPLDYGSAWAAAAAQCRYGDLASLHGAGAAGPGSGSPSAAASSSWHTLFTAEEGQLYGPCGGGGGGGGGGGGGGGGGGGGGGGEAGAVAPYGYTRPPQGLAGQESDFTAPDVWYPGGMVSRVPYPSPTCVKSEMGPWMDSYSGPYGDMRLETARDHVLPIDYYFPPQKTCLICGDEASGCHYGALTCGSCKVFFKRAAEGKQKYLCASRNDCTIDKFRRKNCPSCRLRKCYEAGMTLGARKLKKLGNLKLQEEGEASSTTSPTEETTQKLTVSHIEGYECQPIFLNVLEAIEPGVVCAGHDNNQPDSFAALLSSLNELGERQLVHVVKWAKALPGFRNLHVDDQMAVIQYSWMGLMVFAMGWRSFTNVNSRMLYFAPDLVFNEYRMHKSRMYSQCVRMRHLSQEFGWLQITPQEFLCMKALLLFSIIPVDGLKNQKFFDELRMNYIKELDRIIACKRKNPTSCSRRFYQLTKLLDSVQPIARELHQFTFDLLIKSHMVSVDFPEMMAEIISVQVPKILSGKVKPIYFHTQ
The data set is described as follows: Agonist activity at human AR. In kind it is functional.

Data set [8] in a line: Solubility of compound in simulated lung fluid by dialysis bag method. In kind it is physicochemical.
Data set [9] concerns Blood. Kind of data set: Inhibition of TNFalpha release in LPS-stimulated human whole blood by ELISA assay. In kind it is functional, tissue-based. (An ELISA detects its analyte on a solid surface through an enzyme-linked reagent.)
A short description of data set [10]: Oral bioavailability in rat at 2 mg/kg. It counts as ADME, organism-based. As to conditions: in vivo.
Data set [11] in a line: Antiinflammatory activity in rat assessed as inhibition of LPS-induced lung neutrophilia at 10 ug, intratracheally administered 4 hr prior to LPS challenge measured after 4 hrs. It counts as functional, Neutrophil.
Data set [12] can be described thus: Metabolic stability in human liver microsomes assessed as phase 2 glucuronidation in presence of UDPGA. It counts as ADME, Microsome. The conditions noted are these: read-out: Stability.
Data set [13] in a line: Antiinflammatory activity in rat assessed as inhibition of LPS-induced lung neutrophilia at 10 ug, intratracheally administered 4 hr prior to LPS challenge measured after 1 hr. It counts as functional, Neutrophil.
Data set [14] can be described thus: Metabolic stability of compound in human liver microsomes assessed as intrinsic clearance by equilibrium dialysis. In kind it is ADME, Microsome. For orientation: Liver microsomes are vesicles of endoplasmic reticulum, rich in cytochrome P450 enzymes.
Data set [15] is described as follows: Antiinflammatory activity in rat assessed as inhibition of LPS-induced lung neutrophilia at 10 ug, intratracheally administered 4 hr prior to LPS challenge measured after 8 hrs. In kind it is functional, Neutrophil.
Data set [16] in a line: Half life in rat. In kind it is ADME, organism-based. As to conditions: in vivo.
The target in data set [17] is T2, Androgen receptor (Homo sapiens). Kind of data set: Antagonist activity at human AR. In kind it is functional.
Data set [18] has as its target T1, Estrogen receptor (Homo sapiens). Kind of data set: Agonist activity at human ER. It counts as functional.

Converted amounts (≈) assume the structure as drawn. The source made the active and inactive calls. No cut-off for these calls is given here. Bounds are passed on as bounds.

As for `C[C@]12C=CC(=O)C=C1[C@@H](F)C[C@H]1[C@@H]3C[C@H]4O[C@@H](c5ccc(CSc6ccc(O)c(Cl)c6)cc5)O[C@@]4(C(=O)CO)[C@@]3(C)C[C@H](O)[C@@]12F`, the ED50 in data set [1] was determined as 36 µg. The same compound had a CL free in data set [2] of over 59000 mL/min/kg. Moreover, the “inhibition (INH)” value amounted to 24% in [3], 59% in data set [11], 52% in data set [13] and 46% in data set [15]. Moreover, the clearance – broadly, the rate of elimination divided by the concentration – in data set [4] was found to be 84 mL/min/kg. Moreover, the results for the IC50 in data set [5] and in [9] were 0.03 nM and 8.73 nM, respectively. The result in data set [6], in data set [7], in data set [17] and in data set [18] was inactive. In addition, in [8], the concentration in solution (solubility) was 0.36 µg/mL (≈ 0.535 µM). For the same compound, in data set [10], the bioavailability (in general, the share of a dose that reaches the circulation, judged against a reference dose that is usually intravenous) is under 1%. For the same compound, the microsomal CLint in data set [12] stood at 100 µL/min/mg; in data set [14] it was 122 µL/min/mg. In addition, the half-life (usually the time in which the quantity being followed falls by half) in [16] was 2.8 h.
